Results taken from US9918656B2, “Implantable magnetic relaxation sensors and methods of measuring a sensor's cumulative exposure to a biomarker” (Massachusetts Institute of Technology, priority 2010, dated 2018).

Tested on: murine model
Assay: Doxorubicin cardiotoxicity: change in T2 of explanted myoglobin sensors
Settings: myoglobin sensors left in vivo for 72 h after implantation; FIG. 17
Description: FIG. 17 is a chart, illustrating data from experiments using sensors to detect the cardiotoxic effect of the drug Doxorubicin measured by change in T2 of […] sensors.
Derivatized particles were encapsulated within small diffusion devices. Polycarbonate diffusion membranes (SPI Supplies) were affixed by double-sided adhesive to one side of high-density polyethylene cylinders (thickness=1.6 mm, inner diameter=4.1 mm, outer diameter=7.9 mm). The opposing end was closed off by single-sided adhesive (3M) after the reservoir was filled with 25 μl particle solution. Devices (n=6 per animal) were implanted subcutaneously in the flank. The animals were euthanized and the devices explanted for single-sided relaxometry at specified time points. Devices were sealed with single-sided adhesive and replaced in the implant site for imaging.
The application of the sensors to discern drug cardiotoxicity was also studied. Doxorubicin is a potent anthracycline antibiotic that has found wide clinical use as a cancer chemotherapeutic. […] It was confirmed that serum myoglobin increases after doxorubicin administration in a murine model (as illustrated in FIG. 16), although at an order of magnitude lower concentration than after acute MI (10^2 ng/ml versus 10^3 ng/ml). Myoglobin sensors were thus left in vivo for 72 h after implantation (as opposed to 24 h for acute MI). […]

COc1cccc2c1C(=O)c1c(O)c3c(c(O)c1C2=O)C[C@@](O)(C(=O)CO)C[C@@H]3O[C@H]1C[C@H](N)[C@H](O)[C@H](C)O1 [Doxorubicin] was tested, and the “sensor T2, experimental versus control groups” value was “clear distinction in sensor T2 between the experimental and control groups”.
